From ChEMBL document CHEMBL1201862, “PubChem BioAssay data set” (2004)
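96-well plates; 48 h exposure; 5 concentrations. Endpoints by linear interpolation between flanking doses. Not reached: highest tested concentration assigned. GI50: concentration for 50% inhibition of growth.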 Active and inactive are the calls of the source. Cut-off read from the data, not from the text of the source: active = GI50 up to about 1.1 µM and inactive = higher.

Experiments:
Assay in all cases: inhibition of tumour cell growth, NCI panel, 48 h
A498 = tested on: A498
KM12 = tested on: KM12
DMS-273 = tested on: DMS-273
RPMI-8226 = tested on: RPMI-8226
KM-20L2 = tested on: KM-20L2
CCRF-CEM = tested on: CCRF-CEM
OVCAR-3 = tested on: OVCAR-3
OVCAR-5 = tested on: OVCAR-5
OVCAR-4 = tested on: OVCAR-4
NCI-H460 = tested on: NCI-H460
M14 = tested on: M14
HCT-15 = tested on: HCT-15
HT-29 = tested on: HT-29
TK-10 = tested on: TK-10
CAKI-1 = tested on: CAKI-1
NCI-H226 = tested on: NCI-H226
SR = tested on: SR
SW-620 = tested on: SW-620
NCI-H23 = tested on: NCI-H23
NCI/ADR-RES = tested on: NCI/ADR-RES

Row | Structure (SMILES) | GI50 (A498) | GI50 (KM12) | GI50 (DMS-273) | GI50 (RPMI-8226) | GI50 (KM-20L2) | GI50 (CCRF-CEM) | GI50 (OVCAR-3) | GI50 (OVCAR-5) | GI50 (OVCAR-4) | GI50 (NCI-H460) | GI50 (M14) | GI50 (HCT-15) | GI50 (HT-29) | GI50 (TK-10) | GI50 (CAKI-1) | GI50 (NCI-H226) | GI50 (SR) | GI50 (SW-620) | GI50 (NCI-H23) | GI50 (NCI/ADR-RES)
1 | C/C(=N\NC(N)=O)C(CN1CCCCC1)C(c1ccccc1)c1c(O)c2ccccc2oc1=O (stereo unspecified) | > 100 µM (inactive) | > 100 µM (inactive) | > 100 µM (inactive) | > 100 µM (inactive) | > 100 µM (inactive) | > 100 µM (inactive) | > 100 µM (inactive) | > 100 µM (inactive) | > 100 µM (inactive) | > 100 µM (inactive) | > 100 µM (inactive) | > 100 µM | > 100 µM (inactive) | > 100 µM (inactive) | > 100 µM (inactive) | > 100 µM (inactive) | > 100 µM (inactive) | > 100 µM (inactive) | – | –
2 | Cc1ccc(C)c(NC(=O)c2cc(-c3ccc([N+](=O)[O-])cc3)nc(N)n2)c1 | > 100 µM (inactive) | > 100 µM (inactive) | > 100 µM (inactive) | > 100 µM (inactive) | > 100 µM (inactive) | > 100 µM (inactive) | > 100 µM (inactive) | > 100 µM (inactive) | > 100 µM (inactive) | > 100 µM (inactive) | > 100 µM (inactive) | > 100 µM | > 100 µM (inactive) | > 100 µM (inactive) | > 100 µM (inactive) | > 100 µM (inactive) | > 100 µM (inactive) | > 100 µM (inactive) | > 100 µM (inactive) | –
3 | C[C@]12CCC(=O)C=C1CC[C@@H]1[C@@H]2CC[C@]2(C)C(=O)NC(=O)C[C@@H]12 | > 100 µM (inactive) | > 100 µM (inactive) | > 100 µM (inactive) | > 100 µM (inactive) | > 100 µM (inactive) | > 100 µM (inactive) | > 100 µM (inactive) | > 100 µM (inactive) | > 100 µM (inactive) | > 100 µM (inactive) | > 100 µM (inactive) | > 100 µM | > 100 µM (inactive) | > 100 µM (inactive) | > 100 µM (inactive) | > 100 µM (inactive) | > 100 µM (inactive) | > 100 µM (inactive) | > 100 µM (inactive) | –
4 | CCNC(=O)C#CC(=O)NCC | > 10 µM (inactive) | > 100 µM (inactive) | 17.8 µM (inactive) | > 42.4 µM (inactive) | > 100 µM (inactive) | > 46.1 µM (inactive) | > 100 µM (inactive) | > 100 µM (inactive) | > 100 µM (inactive) | > 100 µM (inactive) | > 100 µM (inactive) | > 42.6 µM | > 100 µM (inactive) | > 100 µM (inactive) | > 100 µM (inactive) | > 10 µM (inactive) | > 41.9 µM (inactive) | > 48 µM (inactive) | > 100 µM (inactive) | –
5 | [N-]=[N+]=CC(=O)C1(C(=O)C=[N+]=[N-])CC1 | > 100 µM (inactive) | > 100 µM (inactive) | > 100 µM (inactive) | – | > 100 µM (inactive) | > 100 µM (inactive) | > 100 µM (inactive) | > 100 µM (inactive) | > 100 µM (inactive) | > 100 µM (inactive) | > 100 µM (inactive) | > 100 µM | > 100 µM (inactive) | > 100 µM (inactive) | – | > 100 µM (inactive) | > 100 µM (inactive) | > 100 µM (inactive) | > 100 µM (inactive) | –
6 | Cc1cc(NC(=O)NC(=O)c2ccccc2NC(=O)CN)ccc1Oc1ncc(Br)cn1 | 0.454 µM (active) | 0.401 µM (active) | 0.313 µM (active) | 1.57 µM (inactive) | 0.676 µM (active) | 0.403 µM (active) | 0.217 µM (active) | 12.3 µM (inactive) | 20 µM (inactive) | 0.743 µM (active) | 0.592 µM (active) | 1.41 µM | 0.299 µM (active) | 9.62 µM (inactive) | 0.0627 µM (active) | 1.18 µM (inactive) | 1.06 µM (active) | 0.618 µM (active) | 0.74 µM (active) | 0.13 µM (active)
7 | O=c1n(CC2CO2)c(=O)n(CC2CO2)c(=O)n1CC1CO1 (stereo unspecified) [TEROXIRONE] | 30.3 µM (inactive) | 56.1 µM (inactive) | 1.16 µM (inactive) | 39.4 µM (inactive) | 68.5 µM (inactive) | 3.6 µM (inactive) | 32.7 µM (inactive) | 67.8 µM (inactive) | 45.2 µM (inactive) | 2.03 µM (inactive) | 9.27 µM (inactive) | – | 13.9 µM (inactive) | 36.6 µM (inactive) | 8.04 µM (inactive) | 26.6 µM (inactive) | 1.25 µM (inactive) | 34 µM (inactive) | 16.7 µM (inactive) | 34 µM (inactive)
